For this assay, the target named is T1, CDK2/Cyclin E (Homo sapiens, UniProt P24941).
T1 construct: The open reading frames of CDK2 and Cyclin E were isolated by reverse transcriptase-PCR; made in house; host or cells: Sf21 (Spodoptera frugiperda) insect cells, baculovirus co-infection; GST-Rb substrate made in E. coli BL21 (DE3) pLysS
The assay is described as follows: in vitro kinase assay (Scintillation Proximity Assay), incorporation of [γ-33-P]-ATP into GST-Rb. The class given is biochemical. The following applies: CDK2/Cyclin E partially-purified enzyme, GST-Rb substrate, 0.2 μM ATP, 60 minutes room temperature; read-out: CDK2 inhibitory activity IC50. As to the method:
The compounds were tested in an in vitro kinase assay in 96 well format using Scintillation Proximity Assay (SPA—obtained from Amersham) for measuring incorporation of [γ-33-P]-Adenosine Triphosphate into a test substrate (GST-Retinoblastoma protein; GST-Rb). In each well was placed the compound to be tested (diluted in DMSO and water to correct concentrations) and in control wells either roscovitine as an inhibitor control or DMSO as a […] control.
Approximately 0.2 μl of CDK2/Cyclin E partially-purified enzyme (amount dependent on enzyme activity) diluted in 25 μl incubation buffer was added to each well then 20 μl of GST-Rb/ATP/ATP33 mixture (containing 0.5 μg GST-Rb and 0.2 μM ATP and 0.14 μCi [γ-33-P]-Adenosine Triphosphate in incubation buffer), and the resulting mixture shaken gently, then incubated at room temperature for 60 minutes. […]
The plates were sealed with Topseal-S plate sealers, left for two hours then spun at 2500 rpm, 1124× g., for 5 minutes. The plates were read on a Topcount for 30 seconds per well. […]
The open reading frames of CDK2 and Cyclin E were isolated by reverse transcriptase-PCR using HeLa cell and activated T cell mRNA as a template and cloned into the insect expression vector pVL1393 (obtained from Invitrogen 1995 catalogue number. V1392-20). […]
(In general: In a scintillation proximity assay essentially only radioactivity close to the scintillant gives light.)

As usually defined, the IC50 is the point on the concentration scale where inhibition reaches its midpoint.

The structures appear in SMILES notation.

With `CCN(CC)CCOc1ccc(Nc2nccc(-c3cnc4ccccn34)n2)cc1` [Example 12, 2-[4-(2-Diethylaminoethoxy)anilino]-4-(imidazo[1,2a]pyrid-3-yl)pyrimidine], the IC50 was 170 nM.
On to `O=S(=O)(c1ccc(Nc2nccc(-c3cnc4ccccn34)n2)cc1)N1COCOC1` [Example 11, 2-[4-(3,5-Dioxapiperidin-1-yl)sulphonylanilino]-4-(imidazo[1,2a]pyrid-3-yl)pyrimidine], for which the IC50 is 190 nM.

The record behind these values is US6855719B1, “Imidazo[1,2-A]pyridine and pyrazolo[2,3-A]pyridine derivatives” (AstraZeneca AB, priority 1999, dated 2005).
